Experimental data reported in patent US6855728B2, “Small-molecule modulators of hepatocyte growth factor / scatter factor activities” (North Shore-Long Island Jewish Health System, priority 2001, dated 2005).
Values belong to the compound of their own block, whether it stands above or below them.

Assays:
c-Met receptor = c-Met receptor (Homo sapiens, UniProt P08581); assay: HUVEC proliferation assay with free c-Met receptor (specificity); format: cell-based
Text: The following assays were used to evaluate the activity of the various compounds discussed herein. Certain of the compounds and groups thereof express-like activity, i.e., they induce scatter, cell proliferation, inhibit apoptosis, among other activities, and if acting through the c-Met receptor, agonize or stimulate c-Met receptor activity. The specificity for such compounds working through the c-Met receptor may be identified by performing the stimulation assay in the presence of free c-Met receptor. Reduction of a proliferative response in the presence of c-Met indicates such specificity.
Cell proliferation assays Endothelial cells (HUVECs) were seeded in 48 well plates at a density of 10,000 to 20,000 cells per well in the normal growth medium (EGM-2-Clonetics) containing 2% fetal bovine serum, FGF, VEGF, IGF, ascorbic acid, EGF, GA, heparin and hydrocortisone. The cells were grown normally in the growth medium for 24 hr at 37 degrees C. and 5% CO2. The cells were then rinsed with RPMI-1% BSA and starved for 1-2 hrs. […] Then the cells were lysed with 0.5M NaOH for 30 min and the radioactivity counted in the beta counter.
The specificity of the stimulation of endothelial cell growth by the compound as measured by ^3H-thymidine incorporation was tested by pre-incubation of cells with the HGF/SF receptor c-met. […]

[1] = tested on: mice following removal of the femoral artery; assay: In vivo blood flow improvement assay; conditions: administered to mice for seven days following removal of the femoral artery
[2] = tested on: Endothelial cells (HUVECs); assay: Endothelial cell (HUVEC) proliferation assay, 3H thymidine incorporation, compound without added growth factor; format: cell-based, human
Procedure, shortened: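 HUVECs grown 24 h in EGM-2, starved 1-2 h in RPMI-1% BSA, then exposed 24 h at 37 degrees C to compounds at 1 to 12 microgram/ml without added growth factors. Proliferation read as 3H thymidine incorporation over 4 to 5 h; human iliac artery endothelial cells also used similarly.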

another cell line = assay: Anti-apoptotic activity assay in another cell line; format: cell-based
Method: Anti-apoptotic Activity Assay. The ability of compounds of the present invention to protect cells-from apoptosis was performed using a MTT viability assay with MDCK cells exposed to adriamycin (15 micromolar) to induce apoptosis. HGF/SF was evaluated as a positive control.
In another cell line, 90% protection was afforded by (4-chlorophenyl)[3-(2-(2-thienyl)vinyl)-1H-pyrazol-1-yl]methanone.

MDCK cells = assay: Scatter assay; format: cell-based; conditions: 6 microgram/ml; microscopic examination
Method: Scatter Assay. A standard assay for scatter of MDCK cells was performed. Results were evaluated by microscopic examination.

[3] = tested on: MDCK cells exposed to adriamycin; assay: Anti-apoptotic activity assay (MTT viability, adriamycin-induced apoptosis); format: cell-based
[4] = tested on: FGF-mediated increase in endothelial cell proliferation; assay: Endothelial cell proliferation assay in the presence of FGF; format: cell-based; conditions: 1.5 micromolar
Method: (§1) Cell proliferation assays Endothelial cells (HUVECs) were seeded in 48 well plates at a density of 10,000 to 20,000 cells per well in the normal growth medium (EGM-2-Clonetics) containing 2% fetal bovine serum, FGF, VEGF, IGF, ascorbic acid, EGF, GA, heparin and hydrocortisone. The cells were grown normally in the growth medium for 24 hr at 37 degrees C. and 5% CO2. The cells were then rinsed with RPMI-1% BSA and starved for 1-2 hrs. The stock solutions of all the compounds were made at a concentration of 10 mg/ml in DMSO and diluted in RPMI-1% BSA at a final concentrations of 1 to 12 microgram/ml. The cells were then washed and treated with the compounds and incubated for another 24 hr at 37 degrees C. Then ^3H thymidine (0.5 microgram/ml in RPMI-BSA) was added to the cells and incubated at 37 degrees C. for 4 to 5 hours. The unincorporated thymidine was removed by washing the cells four times with 1× PBS. Then the cells were lysed with 0.5M NaOH for 30 min and the radioactivity counted in the beta counter.
(§2) In endothelial cell proliferation assays as described above, the effect of the compound 1-(4-chloro-3-methylphenyl)-3-(2,6-dichlorophenyl)-prop-2-en-1-one was evaluated in the presence of HGF/SF, VEGF or FGF for its effects on antagonizing the growth factor-induced stimulation of endothelial cell proliferation.

DU145 cells = assay: Clonogenic assay; format: cell-based; conditions: clonogenic assay over 7 days
Method: The effect of (4-(2-chloro-6-fluorobenzyl)-3,5-dimethyl-1H-pyrazole-1-yl)(3-(2,6-dichlorophenyl)-5-methylisoxazol-4-yl)methanone (FIG. 7) and 1-(4-chloro-3-methylphenyl)-3-(2,6-dichlorophenyl)-prop-2-en-1-one were evaluated in a clonogenic assay over 7 days.

[5] = tested on: VEGF-mediated increase in endothelial cell proliferation; assay: Endothelial cell proliferation assay in the presence of VEGF; format: cell-based; conditions: 1.5 micromolar
Method: as §1, §2

[6] = tested on: HGF/SF induced proliferation of HUVEC; assay: Endothelial cell (HUVEC) proliferation assay in the presence of exogenously-added HGF/SF; format: cell-based, human
Procedure, shortened: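 Serum-starved HUVECs were treated 24 h at 37°C with compounds at final 1 to 12 microgram/ml in RPMI-1% BSA. Proliferation was read as ³H-thymidine incorporation over 4 to 5 h, counted after NaOH lysis.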

[7] = tested on: growth of blood vessels from subcutaneous tissue into Matrigel; assay: In vivo blood vessel ingrowth assay (Matrigel); conditions: mice, Matrigel mixed with compound injected subcutaneously, 10 days
Method: Angiogenesis was assayed as growth of blood vessels from subcutaneous tissue into a solid gel of basement membrane containing the test compound. Matrigel in liquid form (0.5 ml) was mixed with a compound of the invention, or basic fibroblast growth factor as a control, and injected into the abdominal subcutaneous tissue of mice as previously described (Kibbey, M. C., Grant, D. S. Auerbach, R. and Kleinman, H. K. [1992] Role of the SIKVAV site of laminin in promotion of angiogenesis and tumor growth: an in vivo Matrigel model. J. Natl. Can. Inst. 84, 1633-38). After 10 days, mice were sacrificed and the Matrigel plugs were removed, fixed, sectioned, stained and examined for ingrowth of blood vessels.

[8] = tested on: human endometrial cancer cells; assay: Effect on growth of tumor cells; format: cell-based; conditions: 40 micrograms/ml
Method: Effect on growth of tumor cells. The activity of the compounds herein to promote or inhibit the growth of tumor cells was evaluated using human endometrial cancer cells.

Sequence of c-Met receptor (P08581 25-1390): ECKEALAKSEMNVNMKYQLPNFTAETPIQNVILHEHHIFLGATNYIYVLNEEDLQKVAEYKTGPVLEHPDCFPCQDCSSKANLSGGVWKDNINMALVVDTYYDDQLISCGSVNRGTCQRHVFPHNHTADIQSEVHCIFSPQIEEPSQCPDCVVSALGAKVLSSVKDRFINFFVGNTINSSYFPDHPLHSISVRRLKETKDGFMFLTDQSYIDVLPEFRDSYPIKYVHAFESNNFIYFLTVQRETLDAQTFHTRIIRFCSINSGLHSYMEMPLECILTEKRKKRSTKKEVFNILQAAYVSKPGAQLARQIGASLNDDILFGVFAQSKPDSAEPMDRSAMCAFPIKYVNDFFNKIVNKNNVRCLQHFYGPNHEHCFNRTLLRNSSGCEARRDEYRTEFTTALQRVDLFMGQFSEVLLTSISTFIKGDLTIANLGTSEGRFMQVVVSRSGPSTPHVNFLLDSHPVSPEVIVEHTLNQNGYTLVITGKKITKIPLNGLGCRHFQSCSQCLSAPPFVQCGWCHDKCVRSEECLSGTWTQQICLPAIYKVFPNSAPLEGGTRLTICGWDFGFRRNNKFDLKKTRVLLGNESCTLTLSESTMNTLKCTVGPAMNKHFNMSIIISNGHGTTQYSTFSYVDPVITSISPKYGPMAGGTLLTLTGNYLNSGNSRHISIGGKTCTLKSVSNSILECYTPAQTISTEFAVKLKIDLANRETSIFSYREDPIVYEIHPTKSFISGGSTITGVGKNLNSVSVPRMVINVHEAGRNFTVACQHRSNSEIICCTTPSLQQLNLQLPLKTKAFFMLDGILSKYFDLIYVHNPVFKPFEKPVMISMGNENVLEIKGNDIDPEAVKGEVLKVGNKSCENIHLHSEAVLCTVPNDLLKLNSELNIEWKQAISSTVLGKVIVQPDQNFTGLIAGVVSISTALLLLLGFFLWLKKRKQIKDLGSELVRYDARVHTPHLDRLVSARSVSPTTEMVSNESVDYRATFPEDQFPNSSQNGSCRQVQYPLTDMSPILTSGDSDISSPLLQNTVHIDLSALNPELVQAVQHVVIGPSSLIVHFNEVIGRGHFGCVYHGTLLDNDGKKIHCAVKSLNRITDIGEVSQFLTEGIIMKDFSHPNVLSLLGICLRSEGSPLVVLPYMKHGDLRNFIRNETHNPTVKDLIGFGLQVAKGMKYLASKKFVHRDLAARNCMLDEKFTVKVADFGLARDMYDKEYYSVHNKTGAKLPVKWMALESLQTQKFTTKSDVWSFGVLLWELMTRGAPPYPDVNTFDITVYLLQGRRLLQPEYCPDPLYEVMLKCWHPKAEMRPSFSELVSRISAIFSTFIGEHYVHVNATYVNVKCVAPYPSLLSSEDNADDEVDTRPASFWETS

inhibition of the compound's stimulation of 3H-thymidine incorporation in the presence of c-Met (c-Met receptor; compound 6 microgram/ml plus c-Met receptor 100 microgram/ml): 75%
compound-induced EC proliferation blocked in the presence of C-met receptor (c-Met receptor; compound 12 microgram/ml incubated with C-met receptor 5 microgram/ml for 30 min, then added to cells): 40%
Structure (SMILES): O=C(c1ccc(Cl)cc1)n1ccc(C=Cc2cccs2)n1 [(4-chlorophenyl)[3-(2-(2-thienyl)vinyl)-1H-pyrazol-1-yl]methanone]
blood flow [1]: significant improvement in blood flow
stimulation of 3H-thymidine incorporation ([2]; compound by itself, 6 microgram/ml): 84%
protection from adriamycin-induced apoptosis (another cell line): 90%
scatter of MDCK cells (MDCK cells): caused scattering of MDCK cells similar to that seen with HGF/SF
protection from adriamycin-induced apoptosis ([3]; MDCK cells): 94%
cell viability, substance alone ([3]; without adriamycin): unchanged

Structure (SMILES): Cc1cc(C(=O)C=Cc2c(Cl)cccc2Cl)ccc1Cl [1-(4-chloro-3-methylphenyl)-3-(2,6-dichlorophenyl)-prop-2-en-1-one]
effect on FGF-mediated increase in endothelial cell proliferation [4]: suppressed
DU145 cell growth (DU145 cells): dose responsive inhibition
effect on VEGF-mediated increase in endothelial cell proliferation [5]: suppressed
Activity at 1 ug/ml concentration Without HGF/SF (result in words) ([2]; 1 ug/ml, without HGF/SF): No effect at 1 ug/ml
effect on HGF/SF-mediated increase in endothelial cell proliferation ([6]; 1.5 micromolar): suppressed
Inhibition at 6-12 micrograms/ml With ([6]; 6-12 micrograms/ml, with HGF/SF, inhibition of endothelial cell proliferation): 40-80% inhibition
ingrowth of blood vessels into Matrigel plug [7]: nearly complete inhibition of blood vessel ingrowth

Structure (SMILES): Cc1nn(C(=O)c2c(-c3c(Cl)cccc3Cl)noc2C)c(C)c1Cc1c(Cl)cccc1Cl [[4-(2,6-dichlorobenzyl)-3,5-dimethyl-1H-pyrazol-1-yl][3-(2,6-dichlorophenyl)-5-methylisoxazol-4-yl]methanone]
effect on HUVEC proliferation, substance alone (FIG. 5) [2]: no effect
blockage of HGF/SF induced proliferation of HUVEC ([6]; 12 micrograms/ml): 40-60%
effect on HGF/SF-mediated stimulation of HUVEC proliferation (FIG. 5) ([6]; combination of HGF/SF and the compound): significant suppression
inhibition at 40 µg/mL [8]: 40 to 50%
